Test results as given in patent US11324741B2, “Methods for treating visceral fat conditions” (Orexigen Therapeutics, Inc., priority 2008, dated 2022).

Columns and labels:
Format in all cases: in vivo, human
Subjects [1] = test: DEXA body scan and multi-slice CT scan of body fat and visceral fat at baseline and 6 months (Example 2); parameters: LS Mean (SE)^, Visceral Adipose Mass / Change from Baseline Mean (SD), Visceral Adipose Mass / LS Mean (SE)^, Total Body Adipose Mass / Change from Baseline Mean (SD), Total Body Adipose Mass: unit not given here; settings: for Change from Baseline Mean (SD), Total Body Adipose Mass: DEXA; for Change from Baseline Mean (SD), Total Body Adipose Mass / Change from Baseline Mean (SD), Visceral Adipose Mass: baseline to 6 months; for Change in Waist Circumference (cm): Table 2, titled Baseline Weight, BMI and Weight Circumference; for Change in Waist Circumference (%) vs. placebo: Table 2; for LS Mean (SE)^, Total Body Adipose Mass / LS Mean (SE)^, Visceral Adipose Mass: change from baseline; for Change from Baseline Mean (SD), Visceral Adipose Mass: multi-slice CT
Procedure: (§1) Subjects (n=117) received one of six treatments: two placebos (P+P), placebo and naltrexone (P+Nal), bupropion and placebo (Bup+P), bupropion and naltrexone 48 mg (Bup+Nal 48), bupropion and naltrexone 32 mg (Bup+Nal 32), or bupropion and naltrexone 16 mg (Bup+Nal 16).
The mass of selective visceral loss can be calculated based on total fat and the volume of visceral fat.
(§2) The average change in visceral body mass is shown in FIG. 1 for the four treatments. […] Statistically significant improvements were also observed in several important metabolic parameters including: plasma glucose, serum insulin and plasma triglycerides.
The percentage of this decrease was similar in magnitude in both visceral and overall adipose tissue.

[2] = system: healthy, non-diabetic, obese subjects; test: Double-blind, placebo-controlled multi-center trial, 24 weeks of treatment (Example 1); settings: for Fasting Glucose / Insulin (mcU/mL) / Triglyceride / Waist (cm) / Weight (%): obese subjects; for Weight (%): naltrexone 48 mg qd, bupropion 400 mg, or 32/400 mg combination; for Visceral fat (%): subset with DEXA and multislice CT scans
Procedure: A double-blind, placebo-controlled multi-center trial was conducted with 285 healthy, non-diabetic, obese subjects. The subjects were administered either bupropion 200 mg bid, placebo (P), naltrexone 48 mg qd (N1), or bupropion 400 mg with naltrexone 32 mg qd (BN2). 182 subjects completed 24 weeks of treatment. A subset of 60 subjects had dual energy X-ray absorptometry (DEXA) and multislice CT scans to measure body fat, lean tissue and visceral fat (American Diabetes Association Annual Meeting 2007).
The groups were matched at baseline.

Subjects [3] = test: Metabolic parameters (Example 2, Table 5); settings: Table 5, Metabolic Parameters
Procedure: as §1, §2

Row | Structure (SMILES) | Change from Baseline Mean (SD), Total Body Adipose Mass (Subjects [1]) | Change in Waist Circumference (cm) (Subjects [1]) | Change in Waist Circumference (%) vs. placebo (Subjects [1]) | LS Mean (SE)^, Total Body Adipose Mass (Subjects [1]) | LS Mean (SE)^, Visceral Adipose Mass (Subjects [1]) | Change from Baseline Mean (SD), Visceral Adipose Mass (Subjects [1]) | Fasting Glucose [2] | Insulin (mcU/mL) [2] | Triglyceride [2] | Waist (cm) [2] | Weight (%) [2] | Visceral fat (%) [2] | Plasma Glucose (Subjects [3]) | Serum Insulin (uU/mL) (Subjects [3]) | Triglycerides (Subjects [3])
1 | CC(NC(C)(C)C)C(=O)c1cccc(Cl)c1 (stereo not drawn) [Bupropion, bupropion] | −4.1 | 1.9 cm | 1.8% | −2.6 | 0.2 | −2.3 | 3.5 ± 1.5 mg/dL | −0.5 ± 1.1 mcU/mL | -18.4 ± 9.0 mg/dL | −2.9 ± 6.0 cm | −3.14 ± 0.7 % | −2.3 ± 5.1 % | 3.5 ± 1.5 mg/dL | −0.5 ± 1.1 uU/mL | -18.4 ± 9.0 mg/dL
2 | O=C1CC[C@@]2(O)[C@H]3Cc4ccc(O)c5c4[C@@]2(CCN3CC2CC2)[C@H]1O5 [Naltrexone, naltrexone] | −3.2 | −1.5 cm | −1.4% | −1.5 | 3.5 | −0.1 | 3.4 ± 1.7 mg/dL | 1.7 ± 1.3 mcU/mL | -17.6 ± 10.4 mg/dL | −3.8 ± 12.7 cm | −1.74 ± 0.9 % | −0.1 ± 8.7 % | 3.4 ± 1.7 mg/dL | 1.7 ± 1.3 uU/mL | -17.6 ± 10.4 mg/dL
